Experimental data from patent US20240009105A1, “TETRAPEPTIDE AND COMPOSITIONS COMPRISING TETRAPEPTIDES” (THE BOOTS COMPANY PLC, priority 2020, published 2024).
Marks after values point to notes of the source that are not given here.

System: Fibrillin 1
Assay: Fibrillin 1 expression in primary human dermal fibroblasts by immunofluorescence
Type: cell-based
Details: HDF cells, 10 ppm peptide, cultured 5 days, immunofluorescence fibre density
Method: The synergistic activity of the tetrapeptides of the present invention were assessed to determine the expression of dermal extracellular protein Fibrillin 1 using immunofluorescence.
Primary Human dermal fibroblast (HDFs) cells were purchased from Promo Cell and came from a donor. Cells were grown in wells of 96-well black walled, clear bottomed, plates (as purchased from Pierce, Thermo Fisher). Cells were cultured in Human Dermal Fibroblast media (PromoCell) supplemented with Basic Fibroblast Growth Factor (recombinant human), 1 ng/ml and Insulin 5 μg/mL Cells were cultured for 5 days in the presence of the tetrapeptides combination of the present invention, changing media and peptides every 48 hours, followed by immunofluorescence assessment. At the time of treatment cells were at passage 3-4. After 5 days the media was discarded, and cells fixed with methanol. […]
The antibody binding to Fibrillin 1 fibres was visualised using a Nikon Eclipse 100 microscope fluorescence setting using an excitation lens for fluorescein isothiocyanate (FITC). […] Image-J software was used to quantify the Fibrillin 1 fibre abundance and coverage in each image using a threshold of 235 measuring the fibre density.
Results are expressed as an average percentage increase in fibrillin abundance compared to untreated control.

Substance	Fibrillin 1 (average percentage increase in fibrillin abundance compared to untreated control)
Pal-GPKG-OH	+131%^a
Pal-LSVD-OH	+185%^a
